Results on nine compounds are retold here after ChEMBL document CHEMBL1201862, “PubChem BioAssay data set” (2004).

Structures are written as SMILES. The source made the active and inactive calls.

A word on the EC50: it is the midpoint of the concentration-response curve. A word on the IC50: it is the concentration that gives 50% inhibition. By AC50 is commonly meant the concentration at which the activity in the assay is half-maximal.

Test [1] in a line: HPDE-C7 pancreatic duct cell viability loss – fluorescence, HTS (AID 430). Type of test: functional, cell-based. The following applies: Homo sapiens.
Test [2] in a line: viability loss of HPDE-C7K cells – cell-based, fluorescence, HTS, primary screen (AID 431). Type of test: functional. The following applies: Homo sapiens.
The next test has as its target Prothrombin (Homo sapiens, UniProt P00734). Put plainly: Thrombin 1536 HTS Dose Response Confirmation. [Related pubchem assays: 1046 (Thrombin 1536 HTS; hits were confirmed in this assay)]. Type of test: functional.
A short description of test [3]: viability inhibitors of stage V gametocytes – luminescence, dose response (AID 1117278).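 Also: gametocytes exposed to compound for 24 hours.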 The test is classed as functional, cell-based.
Test [4] in a line: viability loss in human Jurkat cells – cell-based, luminescence, cytotoxicity control for P. falciparum gametocyte viability project, dose response (AID 1117277).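 Also: potency reflects loss of cellular ATP meaning fewer viable cells.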 The test is classed as functional.
The target in another test is T1, Caspase-6 (Homo sapiens, UniProt P55212).
T1 sequence (P55212 whole entry): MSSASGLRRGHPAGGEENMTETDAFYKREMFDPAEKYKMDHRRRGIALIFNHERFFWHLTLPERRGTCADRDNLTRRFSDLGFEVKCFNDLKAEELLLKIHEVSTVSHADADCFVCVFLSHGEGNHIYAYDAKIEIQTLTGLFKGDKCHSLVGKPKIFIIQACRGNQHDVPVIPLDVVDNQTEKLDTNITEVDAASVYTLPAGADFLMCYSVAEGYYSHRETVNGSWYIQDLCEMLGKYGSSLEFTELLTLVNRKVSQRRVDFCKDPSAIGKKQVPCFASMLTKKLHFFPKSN
Briefly: inhibition of CASP6 peptide cleavage – biochemical, VEID-R110 fluorescence, cherry-pick, dose response (AID 720632).

Test [5] is described as follows: OVCAR8 cell viability loss – plate reader, dry powder samples, PAX8 project, dose response (AID 743197). To be noted: OVCAR-8. Type of test: functional, cell-based.
The next test deals with Paired box protein Pax-8 (Homo sapiens, UniProt Q06710). Briefly: PAX8 transcriptional activity inhibition in RMG-I – RMG-I cells, luciferase, cherry-pick, dose response (AID 687027).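 Also: luciferase reporter driven by Pax8 target thyroperoxidase promoter measured by SteadyGlo luminescence.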 The test is classed as functional, cell-based.
Chain of Paired box protein Pax-8 (Q06710 whole entry): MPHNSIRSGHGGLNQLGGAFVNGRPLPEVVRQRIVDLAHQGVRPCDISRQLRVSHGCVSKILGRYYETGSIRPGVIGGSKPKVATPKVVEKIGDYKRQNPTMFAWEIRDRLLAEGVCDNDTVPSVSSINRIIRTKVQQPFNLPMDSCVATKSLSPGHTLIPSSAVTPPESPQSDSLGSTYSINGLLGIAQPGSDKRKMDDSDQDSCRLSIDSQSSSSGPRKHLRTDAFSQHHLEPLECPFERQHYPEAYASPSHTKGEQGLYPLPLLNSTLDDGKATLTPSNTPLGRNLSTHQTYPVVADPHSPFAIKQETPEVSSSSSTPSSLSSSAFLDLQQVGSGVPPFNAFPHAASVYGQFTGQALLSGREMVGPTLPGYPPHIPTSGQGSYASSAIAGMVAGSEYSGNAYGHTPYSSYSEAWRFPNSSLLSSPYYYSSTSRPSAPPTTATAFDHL
Test [6] can be described thus: OVCAR-3 cell viability loss – plate reader, dry powder samples, PAX8 inhibitor project, dose response (AID 743044). The test is classed as functional, cell-based.
For test [7], the target named is T2, Microphthalmia-associated transcription factor (Homo sapiens, UniProt O75030).
T2 sequence (O75030 whole entry): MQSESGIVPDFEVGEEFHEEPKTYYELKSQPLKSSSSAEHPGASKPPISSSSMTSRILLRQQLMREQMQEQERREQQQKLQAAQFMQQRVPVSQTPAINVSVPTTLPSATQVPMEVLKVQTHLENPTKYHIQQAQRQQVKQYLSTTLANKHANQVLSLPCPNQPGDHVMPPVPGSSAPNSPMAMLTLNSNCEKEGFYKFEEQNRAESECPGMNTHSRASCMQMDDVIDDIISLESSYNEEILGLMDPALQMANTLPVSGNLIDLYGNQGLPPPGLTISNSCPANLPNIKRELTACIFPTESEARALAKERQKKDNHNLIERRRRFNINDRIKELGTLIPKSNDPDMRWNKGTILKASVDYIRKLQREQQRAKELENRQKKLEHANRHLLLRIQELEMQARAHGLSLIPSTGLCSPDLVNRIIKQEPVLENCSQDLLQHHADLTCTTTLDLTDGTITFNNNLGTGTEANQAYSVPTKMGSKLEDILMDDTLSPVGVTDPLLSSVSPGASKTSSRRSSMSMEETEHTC
Briefly: reducers of TRPM1 reporter luminescence, concentration series – cell-based, SK-MEL-5, cherry-picked, set 3, MITF inhibitor project, dose response (AID 493073).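 Also: SK-MEL-5 melanoma cells with luciferase driven by the MITF target TRPM1 promoter.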 Type of test: functional.

A further test deals with T3, Leucine aminopeptidase (Plasmodium falciparum 3D7, UniProt Q8IL11).
T3 sequence (Q8IL11 whole entry): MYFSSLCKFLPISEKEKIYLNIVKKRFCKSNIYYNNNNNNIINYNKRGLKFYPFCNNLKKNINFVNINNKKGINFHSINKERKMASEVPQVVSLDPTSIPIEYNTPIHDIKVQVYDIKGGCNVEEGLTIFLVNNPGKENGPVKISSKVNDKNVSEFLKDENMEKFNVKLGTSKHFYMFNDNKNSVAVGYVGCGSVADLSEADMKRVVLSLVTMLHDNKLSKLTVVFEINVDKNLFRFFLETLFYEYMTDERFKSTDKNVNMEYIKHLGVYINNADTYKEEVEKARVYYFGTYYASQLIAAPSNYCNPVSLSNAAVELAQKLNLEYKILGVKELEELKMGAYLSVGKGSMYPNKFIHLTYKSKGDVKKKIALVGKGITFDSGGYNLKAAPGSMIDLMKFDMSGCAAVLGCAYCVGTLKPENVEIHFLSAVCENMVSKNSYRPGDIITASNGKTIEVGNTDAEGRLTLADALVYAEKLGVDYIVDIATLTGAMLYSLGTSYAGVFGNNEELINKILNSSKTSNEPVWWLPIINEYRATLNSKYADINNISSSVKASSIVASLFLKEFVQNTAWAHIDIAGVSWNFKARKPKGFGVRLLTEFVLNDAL
Briefly: P. falciparum M17LAP inhibitors, primary screen, biochemical, fluorogenic H-Leu-NHMec substrate, 1536-well (AID 1619). Type of test: functional.

The target of test [8] is T4, COUP transcription factor 2 (Homo sapiens, UniProt P24468).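 Also: HEK293 cells transiently cotransfected with COUP-TFII expression vector and reporter; luciferase reporter luminescence driven by COUP-TFII from the pX2-168 reporter plasmid.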
T4 sequence (P24468 whole entry): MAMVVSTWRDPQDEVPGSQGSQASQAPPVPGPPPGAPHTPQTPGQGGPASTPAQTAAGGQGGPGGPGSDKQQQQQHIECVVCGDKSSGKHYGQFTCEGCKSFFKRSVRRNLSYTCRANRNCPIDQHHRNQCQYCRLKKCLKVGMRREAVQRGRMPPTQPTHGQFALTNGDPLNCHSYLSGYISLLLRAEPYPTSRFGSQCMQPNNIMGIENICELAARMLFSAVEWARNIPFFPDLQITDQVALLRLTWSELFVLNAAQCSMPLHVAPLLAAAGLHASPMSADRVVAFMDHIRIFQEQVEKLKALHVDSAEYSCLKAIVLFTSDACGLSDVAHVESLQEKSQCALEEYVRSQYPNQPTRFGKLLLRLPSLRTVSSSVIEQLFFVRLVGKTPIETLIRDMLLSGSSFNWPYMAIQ
Briefly: Luminescence-based cell-based high throughput dose response assay to identify inhibitors of COUP-TFII (NR2F2). The test is classed as functional.

Test [9] concerns the target T5, Fatty acid synthase (Homo sapiens, UniProt P49327). Put plainly: inhibition of human FAS-TE enzyme activity – biochemical, endpoint fluorescence intensity, uHTS hits, dose response (AID 624327).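 Also: fluorescence from hydrolysis of an O-methyl fluorescein acyl ester substrate by the enzyme.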 Type of test: functional.
Test [10] concerns the target T5, Fatty acid synthase. Put plainly: inhibition of human FAS-TE enzyme activity – biochemical, kinetic fluorescence intensity, dose response (AID 624326).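 Also: rate of fluorescence rise from hydrolysis of a fluorogenic O-methyl fluorescein ester substrate.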 Type of test: functional.
Test [11] in a line: growth inhibition of PfATP4-mutant resistant parasites – NITD609-resistant line, SYBR Green, dry powder, dose response (AID 1159571).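 Also: parasites synchronized at ring stage by sorbitol before testing.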 The test is classed as functional, cell-based.
Test [12] in a line: Dd2 malaria parasite growth inhibition potency – SYBR Green, dry powder samples, dose response (AID 1159566).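 Also: potency for growth inhibition with lower SYBR green DNA signal.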 Type of test: functional, cell-based.
The nature of test [13]: P. falciparum Dd2 growth inhibitors, dose response, SYBR Green, cherry-picked samples (AID 1159567). The test is classed as functional, cell-based.
Test [14] in a line: growth inhibition of yeast DHODH-expressing 3D7 parasites – SYBR Green, dry powder samples, dose response (AID 1159570).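 Also: parasite growth measured after 72 hours of compound exposure.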 Type of test: functional, cell-based.

T5 sequence (P49327 whole entry): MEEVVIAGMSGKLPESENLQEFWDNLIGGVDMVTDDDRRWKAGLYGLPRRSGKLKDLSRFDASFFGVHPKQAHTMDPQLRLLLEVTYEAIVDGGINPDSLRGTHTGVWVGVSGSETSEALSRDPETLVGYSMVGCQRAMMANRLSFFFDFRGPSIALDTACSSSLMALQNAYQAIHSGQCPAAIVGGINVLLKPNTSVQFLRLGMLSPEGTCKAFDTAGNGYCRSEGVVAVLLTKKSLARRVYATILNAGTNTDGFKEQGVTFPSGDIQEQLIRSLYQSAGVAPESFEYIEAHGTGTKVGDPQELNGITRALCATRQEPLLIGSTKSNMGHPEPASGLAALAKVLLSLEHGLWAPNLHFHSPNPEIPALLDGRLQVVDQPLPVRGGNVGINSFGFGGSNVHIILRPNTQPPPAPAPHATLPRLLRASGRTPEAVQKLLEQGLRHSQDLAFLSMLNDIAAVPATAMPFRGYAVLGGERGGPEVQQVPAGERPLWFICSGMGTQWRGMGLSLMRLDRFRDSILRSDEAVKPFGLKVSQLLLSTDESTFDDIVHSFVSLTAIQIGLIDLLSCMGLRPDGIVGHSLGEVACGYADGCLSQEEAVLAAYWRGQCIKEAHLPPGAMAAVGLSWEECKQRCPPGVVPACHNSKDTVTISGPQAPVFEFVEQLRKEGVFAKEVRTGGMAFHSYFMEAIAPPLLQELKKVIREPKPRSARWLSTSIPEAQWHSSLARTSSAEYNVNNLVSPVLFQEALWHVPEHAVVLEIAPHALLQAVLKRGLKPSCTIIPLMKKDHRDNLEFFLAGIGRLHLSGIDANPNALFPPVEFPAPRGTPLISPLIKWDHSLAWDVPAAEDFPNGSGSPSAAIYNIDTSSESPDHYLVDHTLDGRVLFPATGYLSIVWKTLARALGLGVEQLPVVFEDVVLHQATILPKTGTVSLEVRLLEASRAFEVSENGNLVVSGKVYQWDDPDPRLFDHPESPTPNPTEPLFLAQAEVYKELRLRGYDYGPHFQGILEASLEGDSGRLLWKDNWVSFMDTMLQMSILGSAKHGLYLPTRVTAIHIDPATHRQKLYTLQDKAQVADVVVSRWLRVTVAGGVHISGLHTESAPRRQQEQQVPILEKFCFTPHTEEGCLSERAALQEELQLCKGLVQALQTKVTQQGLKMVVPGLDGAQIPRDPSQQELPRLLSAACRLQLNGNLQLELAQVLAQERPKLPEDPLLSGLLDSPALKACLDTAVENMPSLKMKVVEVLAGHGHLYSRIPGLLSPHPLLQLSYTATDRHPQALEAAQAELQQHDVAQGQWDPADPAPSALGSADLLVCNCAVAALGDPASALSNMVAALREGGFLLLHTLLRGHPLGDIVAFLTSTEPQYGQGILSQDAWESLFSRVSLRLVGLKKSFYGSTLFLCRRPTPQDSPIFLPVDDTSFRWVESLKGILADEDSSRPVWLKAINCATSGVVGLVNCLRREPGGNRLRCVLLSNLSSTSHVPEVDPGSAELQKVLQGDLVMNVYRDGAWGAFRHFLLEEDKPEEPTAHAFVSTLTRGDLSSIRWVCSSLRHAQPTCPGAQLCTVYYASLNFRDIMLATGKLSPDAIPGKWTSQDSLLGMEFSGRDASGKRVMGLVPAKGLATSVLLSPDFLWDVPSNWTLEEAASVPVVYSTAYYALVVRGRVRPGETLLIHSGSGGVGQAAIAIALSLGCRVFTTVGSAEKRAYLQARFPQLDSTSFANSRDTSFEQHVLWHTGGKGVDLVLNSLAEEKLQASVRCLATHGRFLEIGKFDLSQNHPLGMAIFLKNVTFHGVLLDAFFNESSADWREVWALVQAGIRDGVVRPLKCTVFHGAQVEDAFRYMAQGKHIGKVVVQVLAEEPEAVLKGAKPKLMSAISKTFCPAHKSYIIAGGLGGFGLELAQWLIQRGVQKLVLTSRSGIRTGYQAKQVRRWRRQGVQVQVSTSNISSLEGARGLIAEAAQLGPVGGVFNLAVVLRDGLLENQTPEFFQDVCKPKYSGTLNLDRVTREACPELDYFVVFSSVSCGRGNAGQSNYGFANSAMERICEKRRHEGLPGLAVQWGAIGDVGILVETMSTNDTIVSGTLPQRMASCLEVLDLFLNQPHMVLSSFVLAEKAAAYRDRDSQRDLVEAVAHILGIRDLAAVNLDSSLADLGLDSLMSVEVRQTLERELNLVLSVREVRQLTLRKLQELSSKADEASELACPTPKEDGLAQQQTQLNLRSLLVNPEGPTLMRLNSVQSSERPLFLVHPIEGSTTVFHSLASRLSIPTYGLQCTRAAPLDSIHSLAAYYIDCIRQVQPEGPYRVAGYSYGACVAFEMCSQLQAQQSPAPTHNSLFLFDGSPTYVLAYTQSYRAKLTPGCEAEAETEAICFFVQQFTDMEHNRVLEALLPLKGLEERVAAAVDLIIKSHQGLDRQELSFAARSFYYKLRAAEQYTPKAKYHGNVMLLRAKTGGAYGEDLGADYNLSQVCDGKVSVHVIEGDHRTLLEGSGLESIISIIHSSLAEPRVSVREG

Consider `CCn1cc(C(=O)N2CCc3ccccc32)c(=O)c2cc(S(=O)(=O)N3CCOCC3)ccc21`, for which the half-maximal effective concentration (EC50) in test [1] and in test [2] was > 20 µM (not active) throughout.
In the case of `CCOC(=O)C(CC)(CCC(=O)OC)c1csc(Nc2ccccc2O)n1` (stereo unspecified), at Prothrombin, the IC50 was > 50 µM (not active).
In the case of `CC(C)CNC(=O)CCCc1ccccc1`, the IC50 in [3] was > 109 µM (inactive); in test [4], > 83.4 µM (inactive).
`CCOc1cc(N2CCOCC2)c(OCC)cc1NS(=O)(=O)c1cc(NC(C)=O)ccc1OC`: at Caspase-6, the concentration at half-maximal activity (AC50) is 34.5 µM (active).
As for `CC(=O)N1CCc2cc(Br)cc(S(=O)(=O)N3CCC(C(=O)O)CC3)c21`, at Caspase-6, the concentration at half-maximal activity (AC50) is 30.4 µM (active).
Regarding `CC(=O)C[C@@H](O)CC(=O)[C@H]1OC(=O)CC/C=C\Cc2ccccc21`, the IC50 in test [3] was > 109 µM (inactive); in test [4], > 83.3 µM (inactive).
As for `Cc1ccc(S(=O)(=O)Nc2ccc3c(c2)C(=O)N([C@H](C)CO)C[C@@H](C)[C@H](CN(C)C(=O)Nc2cccc4ccccc24)OCCCC[C@@H](C)O3)cc1`, the values for the AC50 (in test [5]; at Paired box protein Pax-8; in [6]) were > 70 µM (inactive), 5.78 µM (active) and 42.1 µM (active), respectively.
As for `CC(C)(C)c1ccc(/C=N/Nc2ccc(C(=O)O)cc2)cc1`, the AC50 in [7] was 6.03 µM (active). Further, the concentration for half-maximal inhibition (IC50) is 13.3 µM (active) at Leucine aminopeptidase, > 9.49 µM (active) in test [8], 7.49 µM (active) on Fatty acid synthase [9] and 8.76 µM (active) on Fatty acid synthase [10].
On to `COc1ccc(C#Cc2ccc3c(c2)O[C@@H](CN(C)S(=O)(=O)c2ccccc2F)[C@@H](C)CN([C@@H](C)CO)S3(=O)=O)cc1`, for which the half-maximal activity concentration (AC50) was 1.93 µM (active) in [11], 1.42 µM (active) in test [12], 2.65 µM (active) in test [13] and 1.71 µM (active) in test [14].
